Paper PMC8392382, “Flavonoids as Human Intestinal α-Glucosidase Inhibitors” (Foods, 2021)
Marks after values point to notes of the source that are not given here.

Tests used:
[1] = target: T1, human sucrase (Homo sapiens, UniProt P14410); experiment: Sucrase inhibition in Caco-2/TC7 cell-free extract, sucrose as substrate, HPAE-PAD; assay type: biochemical; settings: for 15% inhibitory concentration (IC15) Sucrase / 25% inhibitory concentration (IC25) Sucrase / IC50: Caco-2/TC7 CFE, mean ± SEM, n = 3; for 15% inhibitory concentration (IC15) Sucrase / 25% inhibitory concentration (IC25) Sucrase: sucrose; for IC50: 20 mM sucrose, 10 min 37 °C, read-out: 50% inhibitory concentration (IC50) Sucrase; for percent inhibition of sucrase at maximum concentration tested: maximum concentration: acarbose 200, EGCG 1500, quercetin 200, quercetagetin 50, kaempferol 40, galangin 25 µM
T1 construct: an in vitro assay using Caco-2/TC7 cell extracts containing sucrase, maltase and isomaltase was conducted; endogenous in cells; host or cells: Caco-2/TC7 (human colon adenocarcinoma), 21 days post-confluence, crude cell-free extract
T1 sequence (P14410 whole entry): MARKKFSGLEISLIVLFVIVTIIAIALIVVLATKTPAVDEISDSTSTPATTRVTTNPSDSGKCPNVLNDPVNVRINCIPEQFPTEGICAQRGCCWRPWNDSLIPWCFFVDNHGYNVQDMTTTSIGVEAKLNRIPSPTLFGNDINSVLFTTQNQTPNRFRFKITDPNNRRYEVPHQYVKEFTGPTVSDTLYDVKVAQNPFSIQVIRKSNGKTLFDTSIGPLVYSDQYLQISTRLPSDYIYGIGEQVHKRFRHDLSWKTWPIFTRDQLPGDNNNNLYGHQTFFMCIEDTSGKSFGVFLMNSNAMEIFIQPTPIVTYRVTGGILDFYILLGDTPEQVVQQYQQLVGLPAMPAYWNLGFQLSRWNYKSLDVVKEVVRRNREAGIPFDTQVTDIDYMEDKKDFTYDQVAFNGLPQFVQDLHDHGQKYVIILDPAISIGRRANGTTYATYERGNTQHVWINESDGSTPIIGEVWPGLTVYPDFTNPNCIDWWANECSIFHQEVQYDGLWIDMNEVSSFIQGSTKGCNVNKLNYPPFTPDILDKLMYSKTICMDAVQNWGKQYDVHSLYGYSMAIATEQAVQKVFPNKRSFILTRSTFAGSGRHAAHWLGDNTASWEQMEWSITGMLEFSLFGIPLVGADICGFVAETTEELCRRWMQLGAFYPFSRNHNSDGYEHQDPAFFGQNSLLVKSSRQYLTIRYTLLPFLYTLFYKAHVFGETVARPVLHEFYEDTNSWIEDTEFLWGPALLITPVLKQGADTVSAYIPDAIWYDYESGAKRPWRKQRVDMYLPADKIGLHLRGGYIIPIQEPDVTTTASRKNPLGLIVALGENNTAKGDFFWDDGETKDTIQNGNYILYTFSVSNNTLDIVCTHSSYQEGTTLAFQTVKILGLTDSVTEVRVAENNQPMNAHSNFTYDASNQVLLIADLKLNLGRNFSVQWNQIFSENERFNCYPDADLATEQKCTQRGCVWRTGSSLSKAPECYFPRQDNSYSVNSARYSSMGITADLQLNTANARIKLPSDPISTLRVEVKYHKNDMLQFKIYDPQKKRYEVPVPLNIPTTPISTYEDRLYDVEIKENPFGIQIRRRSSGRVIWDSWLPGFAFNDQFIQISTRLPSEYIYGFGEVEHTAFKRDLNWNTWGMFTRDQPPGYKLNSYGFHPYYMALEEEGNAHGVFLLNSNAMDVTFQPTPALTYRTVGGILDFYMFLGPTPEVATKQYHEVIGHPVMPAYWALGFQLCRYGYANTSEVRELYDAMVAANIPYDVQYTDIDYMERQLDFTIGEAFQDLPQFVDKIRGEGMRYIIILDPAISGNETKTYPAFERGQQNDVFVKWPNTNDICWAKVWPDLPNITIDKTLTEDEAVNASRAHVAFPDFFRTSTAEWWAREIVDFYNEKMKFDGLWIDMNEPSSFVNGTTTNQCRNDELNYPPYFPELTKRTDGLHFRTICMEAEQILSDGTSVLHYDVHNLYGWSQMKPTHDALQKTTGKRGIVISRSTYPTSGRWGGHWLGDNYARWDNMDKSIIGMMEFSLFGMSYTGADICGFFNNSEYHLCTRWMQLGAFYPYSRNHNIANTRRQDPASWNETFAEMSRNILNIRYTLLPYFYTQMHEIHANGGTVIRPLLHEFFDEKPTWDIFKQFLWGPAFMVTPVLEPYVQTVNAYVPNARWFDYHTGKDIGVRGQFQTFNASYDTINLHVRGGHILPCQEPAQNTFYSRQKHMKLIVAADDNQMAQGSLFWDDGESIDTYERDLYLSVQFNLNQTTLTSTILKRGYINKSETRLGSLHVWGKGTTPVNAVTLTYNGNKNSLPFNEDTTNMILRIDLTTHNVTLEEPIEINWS
Description: (§1) Disaccharides and monosaccharides were analyzed by HPAE-PAD on the Dionex™ Integrion™ HPIC™ system (Thermo Fisher Scientific). Separation of the carbohydrates was achieved on a CarboPac PA210 column (2 × 150 mm), preceded by a CarboPac PA210 Guard column (2 × 30 mm), with the column and compartment temperatures maintained at 30 °C and 20 °C, respectively. […] Detection was performed using a gold working electrode and AgCl reference electrode at pH ~ 12.0, with a collection rate of 2.00 Hz using the “Gold, Carbo, Quad” waveform. […] A wash injection of only H2O while following the same multistep eluent gradient was performed at the end of every batch (12–14 samples). All injections were performed in duplicate and peak identification was achieved by comparing retention times to the standards. Dionex™ Chromeleon™ 7 Chromatography Data System, version 7.2.9 (Thermo Fisher Scientific, Waltham, MA, USA), was used to process the chromatograms, ensuring peaks were suitably integrated before recording peak area. Sugars were quantified from peak areas using standard curves, with the standards prepared in the same buffer as the samples.
(§2) To mimic intestinal digestion, an in vitro assay using Caco-2/TC7 cell extracts containing sucrase, maltase and isomaltase was conducted. Frozen cells were thawed, 1 mL ice-cold SPB added and then passed through a 21-G needle 15–20 times. The lysate was centrifuged at 14,000× g, 10 min at 4 °C and the supernatant containing cell-free extract (CFE) collected. Total protein concentration in the CFEs was determined by Bradford assay, using the Pierce Coomassie Bradford reagent and BSA standards (Thermo Fisher Scientific, Waltham, MA, USA).
(§3) Assay mixtures, total volume 250 µL, containing CFE (final protein concentration at 0.1–0.35 mg/mL), with or without various concentrations of inhibitors/flavonoids, were prepared and kept on ice. The enzyme reaction was initiated by the addition of ≥20 mM sucrose, maltose or isomaltose and immediately incubating in a 37 °C water bath for 10 min (or various time points during method setup and validation). Following incubation, the enzyme activity was terminated by incubating in a 96 °C water bath for a further 10 min. A positive control without any added inhibitor/flavonoid was simultaneously tested in each batch, and negative controls without enzymes or substrates were also assayed to evaluate the stability of the inhibitors/compounds. Samples were prepared for HPAE-PAD analysis as described in Section 2.3. Specific enzyme activities were determined (U/mg CFE protein) and expressed as a percentage of control enzyme activities accordingly.
(§4) Controls (CFE and substrate only) were prepared by replacing the volume of inhibitor with SPB. […] Estimation of inhibition values were determined in GraphPad Prism and the percentage of inhibition of the sample was calculated following Equation (7) below, where SA = specific activity:(7) Inhibition %=SAcontrol − SAsample/SAcontrol×100
(§5) Enzyme assays were performed at least once for CFEs from biological triplicates, with duplicate injections of each analyzed by HPAE-PAD. MS Excel (Microsoft, Redmond, WA, USA) was used for data processing and analysis. Final inhibition values were expressed as the percentage of control activity (%). The IC15, IC25 and IC50 values were calculated based on the plots created using GraphPad, using the dose-response inhibition (log (inhibitor) vs. normalized response—variable slope) model. The same software was used to determine the apparent Km and Vmax values under the enzyme–kinetic inhibition model, and for statistical analyses using non-parametric multiple comparisons tests. A difference was considered significant at p < 0.05 for all comparisons. All data are expressed as the mean ± SD or SEM, specified accordingly.

[2] = system: human maltase; experiment: Maltase inhibition in Caco-2/TC7 cell-free extract, maltose as substrate, HPAE-PAD; assay type: biochemical; settings: for IC50 / 15% inhibitory concentration (IC15) Maltase / 25% inhibitory concentration (IC25) Maltase: Caco-2/TC7 CFE, mean ± SEM, n = 3; for IC50: 20 mM maltose, 10 min 37 °C, read-out: 50% inhibitory concentration (IC50) Maltase; for 15% inhibitory concentration (IC15) Maltase / 25% inhibitory concentration (IC25) Maltase: maltose; for percent inhibition of maltase at maximum concentration tested: maximum concentration: acarbose 200, EGCG 1500, quercetin 200, quercetagetin 50, kaempferol 40, galangin 25 µM
Description: Disaccharides and monosaccharides were analyzed by HPAE-PAD on the Dionex™ Integrion™ HPIC™ system (Thermo Fisher Scientific). Separation of the carbohydrates was achieved on a CarboPac PA210 column (2 × 150 mm), preceded by a CarboPac PA210 Guard column (2 × 30 mm), with the column and compartment temperatures maintained at 30 °C and 20 °C, respectively. Eluent was generated using a Dionex™ EGC 500 KOH eluent generator cartridge with Dionex™ continuously regenerated-anion trap column 600, with eluent concentration following a multistep gradient: 12 mM for 12 min, 100 mM for 8 min and 12 mM for 12 min, at a flow rate of 0.2 mL/min and with a sample injection volume of 2.5 μL. Detection was performed using a gold working electrode and AgCl reference electrode at pH ~ 12.0, with a collection rate of 2.00 Hz using the “Gold, Carbo, Quad” waveform. The total run time per sample was 32 min, with 3 min allowed between analyses for sample injection by autosampler. A wash injection of only H2O while following the same multistep eluent gradient was performed at the end of every batch (12–14 samples). All injections were performed in duplicate and peak identification was achieved by comparing retention times to the standards. Dionex™ Chromeleon™ 7 Chromatography Data System, version 7.2.9 (Thermo Fisher Scientific, Waltham, MA, USA), was used to process the chromatograms, ensuring peaks were suitably integrated before recording peak area. Sugars were quantified from peak areas using standard curves, with the standards prepared in the same buffer as the samples.
as §2, §3
as §4, with “SPB. Activities of sucrase, maltase and isomaltase were considered as 100% (or 0% inhibition) in the absence of an inhibitor.” for “SPB.”
Enzyme assays were performed at least once for CFEs from biological triplicates, with duplicate injections of each analyzed by HPAE-PAD. MS Excel (Microsoft, Redmond, WA, USA) was used for data processing and analysis. Final inhibition values were expressed as the percentage of control activity (%). […]

[3] = target: T2, human isomaltase (Homo sapiens, UniProt P14410); experiment: Isomaltase inhibition in Caco-2/TC7 cell-free extract, isomaltose as substrate, HPAE-PAD; assay type: biochemical; settings: for 15% inhibitory concentration (IC15) Isomaltase / 25% inhibitory concentration (IC25) Isomaltase: isomaltose; for percent inhibition of isomaltase at maximum concentration tested: maximum concentration: acarbose 200, EGCG 1500, quercetin 200, quercetagetin 50, kaempferol 40, galangin 25 µM
T2 construct: an in vitro assay using Caco-2/TC7 cell extracts containing sucrase, maltase and isomaltase was conducted; endogenous in cells; host or cells: Caco-2/TC7 (human colon adenocarcinoma), 21 days post-confluence, crude cell-free extract
T2 sequence (P14410 whole entry): as above
Description: as §1, §2, §3, §4, §5

[4] = system: human maltase expressed in yeast; experiment: Inhibition of human maltase expressed in yeast (literature); assay type: biochemical; settings: compared with this paper and ref 30
[5] = target: human maltase expressed in yeast; parameters: method as in PMID 32218677; settings: cited from earlier work
[6] = system: yeast α-glucosidase; parameters: method as in PMID 26212963, PMID 30245236, PMID 31007116, PMID 23137344; settings: cited from earlier work
[7] = target: rat maltase; settings: cited from earlier work
[8] = target: rat sucrase; settings: cited from earlier work
[9] = parameters: method as in PMID 9414116; settings: cited from earlier work
[10] = Caco-2/TC7 CFE, mean ± SEM, n = 3

| Compound | 15% inhibitory concentration (IC15) Sucrase [1] | 25% inhibitory concentration (IC25) Sucrase [1] | IC50 [2] [µM] | 15% inhibitory concentration (IC15) Maltase [2] | 25% inhibitory concentration (IC25) Maltase [2] | percent inhibition of maltase at maximum concentration tested [2] | 15% inhibitory concentration (IC15) Isomaltase [3, 10] | 25% inhibitory concentration (IC25) Isomaltase [3, 10] | percent inhibition of isomaltase at maximum concentration tested [3] | IC50 [1] [µM] | percent inhibition of sucrase at maximum concentration tested [1] | further results |
| --- | --- | --- | --- | --- | --- | --- | --- | --- | --- | --- | --- | --- |
| C[C@H]1O[C@H](O[C@H]2[C@H](O)[C@@H](O)[C@@H](O[C@H]3[C@H](O)[C@@H](O)C(O)O[C@@H]3CO)O[C@@H]2CO)[C@H](O)[C@@H](O)[C@@H]1N[C@H]1C=C(CO)[C@@H](O)[C@H](O)[C@H]1O (stereo partly drawn) [Acarbose, acarbose, reference compound] | 0.32 ± 0.05 ^a µM | 0.60 ± 0.09 ^a µM | 13.9 ± 2.3 | 2.4 ± 0.4 ^a µM | 4.6 ± 0.8 ^a µM | more than 50% | 7.8 ± 0.7 ^a µM | 14.4 ± 1.1 ^a µM | 96% | – | – | – |
| O=C(O[C@@H]1Cc2c(O)cc(O)cc2O[C@@H]1c1cc(O)c(O)c(O)c1)c1cc(O)c(O)c(O)c1 [EGCG, (−)-epigallocatechin-3-gallate, reference compound] | 41.2 ± 6.0 ^d µM | 72.9 ± 10.3 ^d µM | 186 ± 40.4 | 21.7 ± 4.5 ^c µM | 43.8 ± 9.2 ^b µM | – | 118.6 ± 18.0 ^b µM | 241.9 ± 40.4 ^b µM | 71% | 175 ± 60.1 | 100% | IC50 ([3]; Caco-2/TC7 CFE, 20 mM isomaltose, 10 min 37 °C, mean ± SEM, n = 3, read-out: 50% inhibitory concentration (IC50) Isomaltase): 462 ± 60.3 µM; fold lower IC50 (human maltase expressed in yeast) than with Caco-2/TC7 as the enzyme origin [4]: 8–10 fold; IC50 [5]: 20 µM |
| O=c1c(O)c(-c2ccccc2)oc2cc(O)cc(O)c12 [Galangin, galangin] | 12.7 ± 2.1 ^c µM | 20.8 ± 5.5 ^c µM | – | 8.7 ± 1.1 ^abc µM | 17.6 ± 2.2 ^a µM | ND (22%) | 9.3 ± 1.2 ^a µM | – | – | – | – | inhibition at 25 µM ([1]; read-out: percent inhibition of sucrase at maximum concentration tested): 33%; inhibition at 25 µM ([3]; read-out: percent inhibition of isomaltase at maximum concentration tested): 22% |
| O=c1c(O)c(-c2ccc(O)cc2)oc2cc(O)cc(O)c12 [Kaempferol, kaempferol] | 14.2 ± 3.7 ^c µM | 30.3 ± 8.2 ^c µM | – | 19.0 ± 5.5 ^bc µM | – | ND (25%) | 12.5 ± 3.7 ^a µM | 34.0 ± 8.4 ^a µM | ND (27%) | – | ND (31%) | percent inhibition of sucrase at maximum concentration tested ([1]; listed as kaempferol): < 32%; percent inhibition of maltase at maximum concentration tested ([2]; listed as kaempferol): < 32%; percent inhibition of isomaltase at maximum concentration tested ([3]; listed as kaempferol): < 32%; yeast α-glucosidase inhibition [6]: 95% |
| O=c1c(O)c(-c2ccc(O)c(O)c2)oc2cc(O)c(O)c(O)c12 [Quercetagetin, quercetagetin] | 3.5 ± 1.1 ^b µM | 6.6 ± 1.8 ^b µM | – | 3.4 ± 0.9 ^ab µM | 6.7 ± 1.5 ^a µM | ND (48%) | 5.9 ± 1.9 ^a µM | 20.3 ± 7.3 ^a µM | ND (29%) | 21.7 ± 5.3 | > 50% | – |
| O=c1c(O)c(-c2ccc(O)c(O)c2)oc2cc(O)cc(O)c12 [Quercetin, quercetin] | 40.5 ± 5.1 ^d µM | 69.5 ± 8.2 ^d µM | – | 43.0 ± 3.1 ^d µM | 82.0 ± 4.6 ^c µM | – | 104.0 ± 18.8 ^b µM | – | ND (18%) | 162 ± 13.6 | > 50% | IC50 [7]: 281 µM; IC50 [8]: > 400 µM; half-life [9]: ~ 24 h |
